In PubChem BioAssay AID1963865 (Molecular Pharmacology Branch, DTP, NCI, 2024):

System: KRAS PDC multicell spheroid viability
Experiment: Anticancer human tumor 825966-067-R-J1-PDC patient-derived colon carcinoma cell line growth inhibition [KRAS2]
Conditions: for IC50: curve of first compound; for viability, T/C: stronger effect = lower value
In short: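 Combination screen of spheroid viability in tumor-cell co-cultures with endothelial (HUVEC) and mesenchymal stem cell stroma. Each agent was tested in half-log dilutions, topping at clinical Cmax or at 10 microM without a known Cmax.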

[1] = second compound 0.1 µM, first compound 0.0316 µM
[2] = second compound 0.1 µM, first compound 0.1 µM
[3] = second compound 0.316 µM, first compound 0.0316 µM
[4] = second compound 0.316 µM, first compound 0.1 µM
[5] = second compound 1 µM, first compound 0.0316 µM
[6] = second compound 1 µM, first compound 0.1 µM
[7] = second compound 3.16 µM, first compound 0.0316 µM
[8] = second compound 3.16 µM, first compound 0.1 µM
[9] = second compound 10 µM, first compound 0.0316 µM
[10] = second compound 10 µM, first compound 0.1 µM
[11] = second compound 0.1 µM, first compound 0.316 µM
[12] = second compound 0.1 µM, first compound 1 µM
[13] = second compound 0.1 µM, first compound 3.16 µM
[14] = second compound 0.1 µM, first compound 10 µM
[15] = second compound 0.316 µM, first compound 0.316 µM
[16] = second compound 0.316 µM, first compound 1 µM
[17] = second compound 0.316 µM, first compound 3.16 µM
[18] = second compound 0.316 µM, first compound 10 µM
[19] = second compound 1 µM, first compound 0.316 µM
[20] = second compound 1 µM, first compound 1 µM
[21] = second compound 1 µM, first compound 3.16 µM
[22] = second compound 1 µM, first compound 10 µM
[23] = second compound 3.16 µM, first compound 0.316 µM
[24] = second compound 3.16 µM, first compound 1 µM
[25] = second compound 3.16 µM, first compound 3.16 µM
[26] = second compound 3.16 µM, first compound 10 µM
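Note: spheroids exposed to compounds for 7 days.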
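Throughout, for viability, T/C: 100% = DMSO vehicle control viability.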

Cn1ncnc1[C@H]1c2n[nH]c(=O)c3cc(F)cc(c23)N[C@@H]1c1ccc(F)cc1 + CNCc1ccccc1-c1csc(C(C)Nc2nc(C)nc3cc(OC)c(OC)cc23)c1
IC50 (second compound 0.1 µM): > 100 nM
IC50 (second compound 0.316 µM): > 100 nM
IC50 (second compound 1 µM): > 100 nM
IC50 (second compound 3.16 µM): 22.4 nM
IC50 (second compound 10 µM): < 0.316 nM
viability, T/C (second compound 0.1 µM, first compound 0.000316 µM): 77%
viability, T/C (second compound 0.1 µM, first compound 0.001 µM): 84.2%
viability, T/C (second compound 0.1 µM, first compound 0.00316 µM): 76.4%
viability, T/C (second compound 0.1 µM, first compound 0.01 µM): 64.5%
viability, T/C [1]: 58.2%
viability, T/C [2]: 58.3%
viability, T/C (second compound 0.316 µM, first compound 0.000316 µM): 99.9%
viability, T/C (second compound 0.316 µM, first compound 0.001 µM): 75.2%
viability, T/C (second compound 0.316 µM, first compound 0.00316 µM): 62.5%
viability, T/C (second compound 0.316 µM, first compound 0.01 µM): 57.9%
viability, T/C [3]: 57.3%
viability, T/C [4]: 62.2%
viability, T/C (second compound 1 µM, first compound 0.000316 µM): 85.9%
viability, T/C (second compound 1 µM, first compound 0.001 µM): 97.9%
viability, T/C (second compound 1 µM, first compound 0.00316 µM): 72%
viability, T/C (second compound 1 µM, first compound 0.01 µM): 73.5%
viability, T/C [5]: 70%
viability, T/C [6]: 86%
viability, T/C (second compound 3.16 µM, first compound 0.000316 µM): 87.3%
viability, T/C (second compound 3.16 µM, first compound 0.001 µM): 78.7%
viability, T/C (second compound 3.16 µM, first compound 0.00316 µM): 59.9%
viability, T/C (second compound 3.16 µM, first compound 0.01 µM): 89.3%
viability, T/C [7]: 37.6%
viability, T/C [8]: 3.27%
viability, T/C (second compound 10 µM, first compound 0.000316 µM): 0.24%
viability, T/C (second compound 10 µM, first compound 0.001 µM): 0.26%
viability, T/C (second compound 10 µM, first compound 0.00316 µM): 0.49%
viability, T/C (second compound 10 µM, first compound 0.01 µM): 0.28%
viability, T/C [9]: 0.22%
viability, T/C [10]: 0.19%

COC(=O)c1ccc2c(C(=Nc3ccc(N(C)C(=O)CN4CCN(C)CC4)cc3)c3ccccc3)c(O)[nH]c2c1 + COc1cc2nc(C)nc(NC(C)c3cc(N)cc(C(F)(F)F)c3)c2cc1OC1CCOC1
IC50 (second compound 0.1 µM): 1670 nM
IC50 (second compound 0.316 µM): 1570 nM
IC50 (second compound 1 µM): 836 nM
IC50 (second compound 3.16 µM): 592 nM
IC50 (second compound 10 µM): < 31.6 nM
viability, T/C [1]: 89.6%
viability, T/C [2]: 95.6%
viability, T/C [11]: 81.4%
viability, T/C [12]: 92.9%
viability, T/C [13]: 0.3%
viability, T/C [14]: 0.16%
viability, T/C [3]: 94.4%
viability, T/C [4]: 79.9%
viability, T/C [15]: 82.4%
viability, T/C [16]: 81.8%
viability, T/C [17]: 0.33%
viability, T/C [18]: 0.13%
viability, T/C [5]: 88.1%
viability, T/C [6]: 98.1%
viability, T/C [19]: 92.3%
viability, T/C [20]: 42.1%
viability, T/C [21]: 0.16%
viability, T/C [22]: 0.13%
viability, T/C [7]: 95%
viability, T/C [8]: 103%
viability, T/C [23]: 101%
viability, T/C [24]: 8.39%
viability, T/C [25]: 0.1%
viability, T/C [26]: 2%
viability, T/C [9]: 9.43%
viability, T/C [10]: 10.3%
viability, T/C (second compound 10 µM, first compound 0.316 µM): 1.07%
viability, T/C (second compound 10 µM, first compound 1 µM): 0.34%
viability, T/C (second compound 10 µM, first compound 3.16 µM): 0.13%
viability, T/C (second compound 10 µM, first compound 10 µM): 0.58%

Cn1nccc1Nc1nccc(-c2cc3c(s2)C(C)(C)N(CCN2CCOCC2)C3=O)n1 + C=CC(=O)N1CCN(c2nc(OCC3CCCN3C)nc3c2CCN(c2cccc4cccc(C)c24)C3)CC1CC#N
IC50 (second compound 0.0316 µM): > 10000 nM
IC50 (second compound 0.1 µM): > 10000 nM
IC50 (second compound 0.316 µM): > 10000 nM
IC50 (second compound 1 µM): > 10000 nM
IC50 (second compound 3.16 µM): 674 nM
viability, T/C (second compound 0.0316 µM, first compound 0.0316 µM): 108%
viability, T/C (second compound 0.0316 µM, first compound 0.1 µM): 91.1%
viability, T/C (second compound 0.0316 µM, first compound 0.316 µM): 121%
viability, T/C (second compound 0.0316 µM, first compound 1 µM): 108%
viability, T/C (second compound 0.0316 µM, first compound 3.16 µM): 95.3%
viability, T/C (second compound 0.0316 µM, first compound 10 µM): 68.5%
viability, T/C [1]: 84%
viability, T/C [2]: 91.6%
viability, T/C [11]: 106%
viability, T/C [12]: 100%
viability, T/C [13]: 73.4%
viability, T/C [14]: 79.8%
viability, T/C [3]: 72.2%
viability, T/C [4]: 110%
viability, T/C [15]: 125%
viability, T/C [16]: 93.7%
viability, T/C [17]: 75.9%
viability, T/C [18]: 61.2%
viability, T/C [5]: 85.9%
viability, T/C [6]: 96.1%
viability, T/C [19]: 127%
viability, T/C [20]: 96%
viability, T/C [21]: 64.8%
viability, T/C [22]: 56.4%
viability, T/C [7]: 84.9%
viability, T/C [8]: 76.4%
viability, T/C [23]: 104%
viability, T/C [24]: 4.64%
viability, T/C [25]: 27.8%
viability, T/C [26]: 57.8%
